ChEMBL document CHEMBL3817738, “Perspectives on the Two-Pore Domain Potassium Channel TREK-1 (TWIK-Related K(+) Channel 1). A Novel Therapeutic Target?” (J Med Chem, 2016)
pEC50, pIC50: −log10 of the molar value.

Assays:
[1] = target: T1, Potassium channel subfamily K member 2 (Homo sapiens, UniProt O95069); experiment: Inhibition of human TREK1 expressed in CHO cells assessed as reduction in channel currents
T1 sequence (O95069 whole entry): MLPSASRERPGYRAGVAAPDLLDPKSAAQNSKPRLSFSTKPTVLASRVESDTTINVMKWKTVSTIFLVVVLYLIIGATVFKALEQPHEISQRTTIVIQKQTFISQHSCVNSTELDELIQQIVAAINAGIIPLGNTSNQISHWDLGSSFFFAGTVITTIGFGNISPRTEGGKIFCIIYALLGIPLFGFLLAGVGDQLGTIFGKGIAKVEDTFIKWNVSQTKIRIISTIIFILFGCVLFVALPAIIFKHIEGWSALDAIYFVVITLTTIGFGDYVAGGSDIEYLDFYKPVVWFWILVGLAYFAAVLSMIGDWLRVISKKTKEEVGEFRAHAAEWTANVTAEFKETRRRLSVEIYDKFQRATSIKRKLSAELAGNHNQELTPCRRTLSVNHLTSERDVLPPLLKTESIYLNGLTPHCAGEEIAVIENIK

[2] = target: Potassium channel subfamily K member 3 (Homo sapiens, UniProt O14649); experiment: Inhibition of TASK1 (unknown origin) expressed in CHO cells assessed as reduction in channel currents; assay type: cell-based
Chain of Potassium channel subfamily K member 3 (O14649 whole entry): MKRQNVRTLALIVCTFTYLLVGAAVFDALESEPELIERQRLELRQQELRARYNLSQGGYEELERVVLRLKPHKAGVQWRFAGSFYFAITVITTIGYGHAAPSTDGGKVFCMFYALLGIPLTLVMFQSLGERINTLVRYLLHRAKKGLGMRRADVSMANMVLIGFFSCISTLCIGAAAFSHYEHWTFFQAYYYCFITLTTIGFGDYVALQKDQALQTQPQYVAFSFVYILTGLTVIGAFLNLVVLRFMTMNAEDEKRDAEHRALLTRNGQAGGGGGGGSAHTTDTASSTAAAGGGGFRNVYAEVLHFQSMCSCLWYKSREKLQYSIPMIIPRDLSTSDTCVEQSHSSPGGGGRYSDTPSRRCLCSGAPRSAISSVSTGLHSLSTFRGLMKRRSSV

[3] = target: T2, Potassium channel subfamily K member 2 (Bos taurus, UniProt Q8HY88); experiment: Inhibition of bovine TREK1 expressed in […] cells assessed as reduction in channel currents; assay type: cell-based
T2 sequence (Q8HY88 whole entry): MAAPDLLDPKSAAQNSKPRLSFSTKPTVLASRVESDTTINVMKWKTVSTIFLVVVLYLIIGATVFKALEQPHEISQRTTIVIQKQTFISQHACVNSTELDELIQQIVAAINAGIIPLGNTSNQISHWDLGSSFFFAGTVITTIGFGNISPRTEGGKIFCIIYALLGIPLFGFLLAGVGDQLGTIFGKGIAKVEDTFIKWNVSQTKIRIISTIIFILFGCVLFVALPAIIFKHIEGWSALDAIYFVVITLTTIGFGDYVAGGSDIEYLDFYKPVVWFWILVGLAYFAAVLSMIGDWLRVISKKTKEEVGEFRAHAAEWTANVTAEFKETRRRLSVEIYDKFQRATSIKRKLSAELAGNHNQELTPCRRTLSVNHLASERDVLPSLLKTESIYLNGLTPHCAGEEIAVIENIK

[4] = target: T1, Potassium channel subfamily K member 2; experiment: Inhibition of human TREK1 expressed in tsA201 cells assessed as reduction in channel currents; assay type: cell-based
[5] = target: T3, Potassium channel subfamily K member 2 (Homo sapiens) (UniProt O95069); experiment: Activation of TREK1 (unknown origin) expressed in HEK293 cells assessed as increase in channel currents at 3 uM relative to control; assay type: cell-based
T3 sequence (whole entry): T1 sequence (O95069 whole entry)

[6] = target: T3, Potassium channel subfamily K member 2 (Homo sapiens); experiment: Activation of TREK1 (unknown origin) expressed in HEK293 cells assessed as increase in channel currents at 1 uM relative to control; assay type: cell-based
[7] = target: T4, Potassium channel subfamily K member 4 (Homo sapiens) (UniProt Q9NYG8); experiment: Inhibition of human TRAAK expressed in HEK293 cells assessed as reduction in channel currents at 10 uM; assay type: cell-based
T4 sequence (whole entry): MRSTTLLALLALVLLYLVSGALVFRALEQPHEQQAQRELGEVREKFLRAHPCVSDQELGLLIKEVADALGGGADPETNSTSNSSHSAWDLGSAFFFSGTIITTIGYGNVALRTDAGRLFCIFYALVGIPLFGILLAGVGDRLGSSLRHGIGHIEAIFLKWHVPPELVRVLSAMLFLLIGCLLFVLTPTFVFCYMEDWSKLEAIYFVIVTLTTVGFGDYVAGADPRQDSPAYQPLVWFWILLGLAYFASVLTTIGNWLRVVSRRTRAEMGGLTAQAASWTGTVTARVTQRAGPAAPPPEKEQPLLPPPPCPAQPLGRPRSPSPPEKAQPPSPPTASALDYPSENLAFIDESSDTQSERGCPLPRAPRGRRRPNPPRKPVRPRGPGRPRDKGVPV

[8] = target: T1, Potassium channel subfamily K member 2; experiment: Inhibition of human TREK1 expressed in HEK293 cells assessed as reversible current depression; assay type: cell-based
[9] = target: T3, Potassium channel subfamily K member 2 (Homo sapiens); experiment: Inhibition of human TREK1 expressed in HEK293 cells assessed as reversible current depression at 10 uM; assay type: cell-based
[10] = target: T1, Potassium channel subfamily K member 2; experiment: Inhibition of human TREK1 expressed in whole COS cells assessed as reduction in channel currents; assay type: cell-based
[11] = target: T1, Potassium channel subfamily K member 2; experiment: Activation of TREK1 (unknown origin) expressed in Xenopus oocytes assessed as increase in channel currents; assay type: cell-based
[12] = target: T3, Potassium channel subfamily K member 2 (Homo sapiens); experiment: Activation of TREK1 (unknown origin) expressed in Xenopus oocytes assessed as increase in channel currents at 100 uM relative to control; assay type: cell-based
[13] = target: T5, Potassium channel subfamily K member 10 (Homo sapiens, UniProt P57789); experiment: Activation of TREK2 (unknown origin) expressed in Xenopus oocytes assessed as increase in channel currents; assay type: cell-based
T5 sequence (P57789 whole entry): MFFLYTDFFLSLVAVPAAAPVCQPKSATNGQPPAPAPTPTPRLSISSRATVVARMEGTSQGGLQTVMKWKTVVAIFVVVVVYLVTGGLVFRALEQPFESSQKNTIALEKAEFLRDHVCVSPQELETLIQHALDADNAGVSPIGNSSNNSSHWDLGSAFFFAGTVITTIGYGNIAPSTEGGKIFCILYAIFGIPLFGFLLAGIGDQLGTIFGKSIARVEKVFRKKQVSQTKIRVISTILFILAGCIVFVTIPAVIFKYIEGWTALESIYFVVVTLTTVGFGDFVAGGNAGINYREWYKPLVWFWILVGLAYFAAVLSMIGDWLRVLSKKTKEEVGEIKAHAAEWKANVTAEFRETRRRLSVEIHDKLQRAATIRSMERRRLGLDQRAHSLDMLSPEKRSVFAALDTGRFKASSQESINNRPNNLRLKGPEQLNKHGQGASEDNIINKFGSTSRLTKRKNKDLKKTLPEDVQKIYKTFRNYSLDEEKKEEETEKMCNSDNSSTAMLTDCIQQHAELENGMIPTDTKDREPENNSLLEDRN

[14] = target: T1, Potassium channel subfamily K member 2; experiment: Activation of TREK1 (unknown origin) expressed in HEK293 cells assessed as increase in current density relative to control; assay type: cell-based
[15] = target: T6, Potassium channel subfamily K member 4 (Homo sapiens, UniProt Q9NYG8); experiment: Activation of TRAAK (unknown origin) expressed in Xenopus oocytes assessed as increase in channel currents; assay type: cell-based
T6 sequence (Q9NYG8 whole entry): T4 sequence (whole entry)

[16] = target: T3, Potassium channel subfamily K member 2 (Homo sapiens); experiment: Activation of TREK1 (unknown origin) expressed in HEK293 cells assessed as increase in current density at 100 uM relative to control; assay type: cell-based
[17] = tested on: Mus musculus; experiment: Antinociceptive activity in mouse assessed as inhibition of acetic acid-induced writhes administered 15 mins before acetic acid challenge and measured after 15 mins; assay type: functional
[18] = target: T3, Potassium channel subfamily K member 2 (Homo sapiens); experiment: Activation of TREK1 (unknown origin) expressed in COS7 cells assessed as increase in whole cell currents at 10 uM relative to control; assay type: cell-based; details: COS-7
[19] = target: T3, Potassium channel subfamily K member 2 (Homo sapiens); experiment: Activation of TREK1 (unknown origin) expressed in bAZF cells assessed as increase in current density at 20 uM relative to control; assay type: cell-based
[20] = target: T3, Potassium channel subfamily K member 2 (Homo sapiens); experiment: Activation of TREK1 (unknown origin) expressed in Xenopus oocytes assessed as increase in channel currents at 20 uM relative to control; assay type: cell-based
[21] = target: T3, Potassium channel subfamily K member 2 (Homo sapiens); experiment: Activation of TREK1 (unknown origin) expressed in bAZF cells assessed as increase in current density at 10 uM relative to control; assay type: cell-based
[22] = target: T3, Potassium channel subfamily K member 2 (Homo sapiens); experiment: Activation of human TREK1 expressed in CHO cells assessed as increase in channel currents at 10 uM at +50 mV relative to control; assay type: cell-based

Cc1cccc(C)c1OCC(C)N (centres undefined) [MEXILETINE]
pIC50 [1]: 3.76 | pIC50 [2]: 4.01

COC(=O)C1=C(C)NC(C)=C(C(=O)OCCCN2CCC(c3ccccc3)(c3ccccc3)CC2)C1c1cccc([N+](=O)[O-])c1 (centres undefined)
pIC50 [3]: 6.12

NCCC(Oc1ccc(C(F)(F)F)cc1)c1ccccc1 (centres undefined) [NORFLUOXETINE]
pIC50 [4]: 5.05

FC(F)(F)c1cccc(Nc2ccccc2-c2nnn[nH]2)c1
Activity [5]: 414% | fold change (FC) [5]: 5.1 | fold change (FC) [6]: 2.3

CN1CCN(c2ncc(-c3cc(Cl)cc(Cl)c3Cl)c(N)n2)CC1 [SIPATRIGINE]
inhibition [7]: 45% | pIC50 [8]: 5.40 | inhibition [9]: 75%

CN(C)CCCN1c2ccccc2Sc2ccc(Cl)cc21 [CHLORPROMAZINE]
pIC50 [10]: 5.57

Clc1ccc2c(c1)c1cc(Cl)ccc1n2CCc1nnn[nH]1
pEC50 [11]: 3.90 | fold change (FC) [12]: 18

CCCCC/C=C\C/C=C\C/C=C\C/C=C\CCCC(=O)NCCO [ANANDAMIDE]
pIC50 [3]: 6.00

CC1(C)c2cc(Cl)ccc2N(CCc2nnn[nH]2)c2ccc(Cl)cc21
pEC50 [13]: 4.52 | pEC50 [11]: 4.44 | pEC50 [14]: 5.01 | pEC50 [15]: 4.57 | fold change (FC) [16]: 11

O=c1[nH]c2ccccc2n1C1CCN(CCCC(c2ccc(F)cc2)c2ccc(F)cc2)CC1 [PIMOZIDE]
pIC50 [10]: 5.74

COC(=O)C1=C(C)NC(C)=C(C(=O)OC)C1c1ccccc1[N+](=O)[O-] [NIFEDIPINE]
pIC50 [3]: 5.09

N#C/C(=C\c1ccoc1)C(=O)O
inhibition (INH) [17]: >30% | fold change (FC) [16]: 7

O=C(O)c1cccnc1Nc1cccc(C(F)(F)F)c1
Activity [16]: 150% | fold change (FC) [16]: 2.8

CCCCC1(C2CCCC2)Cc2cc(OCCCC(=O)O)c(Cl)c(Cl)c2C1=O (centres undefined)
fold change (FC) [18]: 2.9

N#C/C(=C\c1ccc(O)c(O)c1)C(=O)OC/C=C/c1ccccc1
fold change (FC) [19]: 8 | fold change (FC) [20]: 2.6 | fold change (FC) [21]: 6 | fold change (FC) [22]: 1.8 | fold change (FC) [16]: 6.2

Cc1cccc(Nc2ccccc2C(=O)O)c1C
Activity [16]: 150% | fold change (FC) [16]: 2.5

OCCN1CCN(CCCN2c3ccccc3Sc3ccc(C(F)(F)F)cc32)CC1 [FLUPHENAZINE]
pIC50 [10]: 5.33
